Reference: patent US20250213563A1, “SUBSTITUTED PYRIMIDIN-4(3H)-ONES FOR USE IN TREATING CANCER” (NAVIRE PHARMA, INC., priority 2021, published 2025)
Where two headings read alike, the source gives them in different places.

What was measured:
NCI-H358 = test: pERK protein levels (HTRF); format: cell-based; conditions: Homo sapiens; NCI-H358, KRAS^G12C
Experimental: (§1) The potency of Compound (10b) in a panel of human tumor cell lines with active MAPK signaling was assessed. Cell viability in a 3D culture system was assessed by measuring CellTiter-Glo (CTG) luminescence following 8 days of treatment with nine concentrations of Compound (10b). MAPK pathway signaling was assessed by measuring pERK protein levels and DUSP6 mRNA levels by homogeneous time resolved fluorescence (HTRF) and quantitative polymerase chain reaction (qPCR), respectively. […] These viability effects correlated with pERK inhibition (Table 2, FIG. 6B) and DUSP6 inhibition (FIG. 6C).

KYSE-520 = test: pERK protein levels (HTRF); format: cell-based; conditions: Homo sapiens; KYSE-520, EGFR^amp
Experimental: as §1

HCC827 = test: pERK protein levels (HTRF); format: cell-based; conditions: Homo sapiens; HCC827, EGFR^Ex19del
Experimental: as §1

NCI-H1975 = test: pERK protein levels (HTRF); format: cell-based; conditions: Homo sapiens; NCI-H1975, EGFR^L858R/T790M
Experimental: as §1

NCI-H1299 = test: pERK protein levels (HTRF); format: cell-based; conditions: Homo sapiens; NCI-H1299, NRAS^Q61K
Experimental: as §1

pERK in PBMC = test: Phase 1/1B first-in-human study, PBMC pERK inhibition; format: in vivo
NCI-H1975-OR CDX model = test: Monotherapy anti-tumor activity, CDX model; format: in vivo, immunocompromised mice; conditions: 100 mg/kg daily orally, 21 to 33 days; EGFR^L858R, EGFR^T790M, EGFR^C797S
Experimental: (§2) In vivo efficacy studies were conducted to evaluate the monotherapy anti-tumor activity of Compound (10b) across a panel of cell line-derived xenograft (CDX) models. […] Significant anti-tumor efficacy was also observed in two CDX models with acquired resistance to EGFR inhibitors.

MIA PaCa-2 CDX model = test: Monotherapy anti-tumor activity, CDX model; format: in vivo, immunocompromised mice; conditions: 100 mg/kg daily orally, 21 to 33 days; KRAS^G12C
Experimental: as §2

NCI-H358 CDX model = test: Monotherapy anti-tumor activity, CDX model; format: in vivo, immunocompromised mice; conditions: 100 mg/kg daily orally, 21 to 33 days; KRAS^G12C
Experimental: as §2

HCC827-ER CDX model = test: Monotherapy anti-tumor activity, CDX model; format: in vivo, immunocompromised mice; conditions: 100 mg/kg daily orally, 21 to 33 days; MET^amp, resistant to EGFR inhibitor
Experimental: as §2

KYSE-520 model = test: Monotherapy anti-tumor activity, CDX model; format: in vivo, immunocompromised mice; conditions: 100 mg/kg daily orally, 21 to 33 days; EGFR^amp
Experimental: as §2

[1] = Single-dose pharmacokinetics, Sprague Dawley rat; format: in vivo, male); conditions: for AUC(0-t): read-out: AUC0→24
Experimental: The pharmacokinetic (PK) parameters of Compound (10b) (freebase) were determined following single intravenous (IV) and oral (PO) administration in female CD-1 mouse, female C57BL/6 mouse (PO only), male Sprague Dawley rat, male Beagle dog, and male Cynomolgus monkey. Additional evaluation of the PK properties of Compound (10b) was obtained following single dose PO administration in female CD-1 mouse, male Sprague Dawley rat and male Beagle dog over a dose range spanning 10 to 300 mg/kg (mouse and rat) and 1 to 100 mg/kg (dog). The intravenous dose solutions were prepared in 20% DMSO-60% PEG400-20% water and the oral dose solutions as suspensions in 0.5% methylcellulose in water, unless otherwise noted. Plasma concentration profiles were generated from serial sampling in individual animals up to 24 hours post dose, except for the studies in mice where composite sampling methods were used (i.e. 3 sampling times per mouse; 9 mice per group). […] Exposures increased with increasing dose level across species, in a dose-proportional manner in mouse and dog, and in a greater than dose-proportional manner in rat (80× increase in AUC with a 30× increase in dosage).

[2] = male, Sprague Dawley, rat, plasma, IV 0.3 mg/kg, free base
[3] = male, Sprague Dawley, rat, plasma, oral 10 mg/kg, free base

SMILES: Cc1c(N2CCC3(CC2)CO[C@@H](C)[C@H]3N)nc(C)n(-c2cccc(Cl)c2Cl)c1=O (atropisomer, axis not shown; (Ra)) [Compound (10b), 6-((3S,4S)-4-amino-3-methyl-2-oxa-8-azaspiro[4.5]decan-8-yl)-3-(Ra)-(2,3-dichlorophenyl)-2,5-dimethylpyrimidin-4(3H)-one]
- IC50 (NCI-H358): 480 nM
- IC50 (KYSE-520): 73 nM
- IC50 (HCC827): 460 nM
- IC50 (NCI-H1975): 400 nM
- IC50 (NCI-H1299): > 25000 nM
- inhibition at 550 mg (pERK in PBMC; Homo sapiens, PBMC, 550 mg dose level, 24 h post dose): 90%
- PBMC pERK inhibition (pERK in PBMC; cohort 5 (550 mg), 4 hours post dose): ~95%
- mean tumor regression (NCI-H1975-OR CDX model): 87%
- tumor growth inhibition (TGI) (MIA PaCa-2 CDX model): 74%
- mean tumor regression (NCI-H358 CDX model): 50%
- TGI (HCC827-ER CDX model): 84%
- TGI (KYSE-520 model): 77%
- half-life [1, 2]: 9.18 h
- AUC(0-t) [1, 2]: 3.27 µM·h
- clearance ([1]; male, Sprague Dawley, rat, plasma, IV 0.3 mg/kg, free base, read-out: Clp (converted)): 10.2 mL/min/kg
- Vd ([1]; male, Sprague Dawley, rat, plasma, IV 0.3 mg/kg, free base, read-out: Vdss): 6.05 L/kg
- Cmax [1, 3]: 3.05 µM
- AUC(0-t) [1, 3]: 19.1 µM·h
- Tmax ([1]; male, Sprague Dawley, rat, plasma, oral 10 mg/kg, free base, read-out: Tmax (mean)): 0.92 h
- Tmax ([1]; male, Sprague Dawley, rat, plasma, oral 300 mg/kg, read-out: mean Tmax): ≤ 8 h
- F ([1]; oral 10 mg/kg, free base): 51.2%
- increase in AUC ([1]; oral, with a 30× increase in dosage (10 to 300 mg/kg)): 80 ×
